Patent US20250326744A1, “PIPERAZINE DERIVATIVE OR SALT THEREOF, AND PHARMACEUTICAL COMPOSITION” (priority 2022, published 2025)
Counter-ions that a name gives are not always drawn.

Tests used:
mexB (PA) strain = assay: Combinational effect with antibacterial agent against Pseudomonas aeruginosa (Test Examples 2 and 4): mexB (PA) strain with LVFX, TC or AZT at 1/4 MIC, EC99; format: cell-based; conditions: for EC99, mexB (PA), AZT / EC99, mexB (PA), LVFX / EC99, mexB (PA), TC: Table 52, Test Example 2, 16 to 20 hours culture, OD595; for EC99, mexB (PA), AZT / EC99, combinational effect with AZT, mexB (PA): combined with AZT at 1/4 MIC; for EC99, mexB (PA), LVFX / EC99, combinational effect with LVFX, mexB (PA): combined with LVFX at 1/4 MIC; for EC99, mexB (PA), TC / EC99, combinational effect with TC, mexB (PA): combined with TC at 1/4 MIC; for EC99, combinational effect with AZT, mexB (PA) / EC99, combinational effect with LVFX, mexB (PA) / EC99, combinational effect with TC, mexB (PA): mexB (PA) strain, Test Example 4
Experimental: (§1) The combinational effect of the test compound with the antibacterial agent against Pseudomonas aeruginosa was evaluated.
For the evaluation of the inhibitory ability against MexAB-OprM, a mutant strain of Pseudomonas aeruginosa in which MexAB-OprM was expressed as a main drug efflux pump (hereinafter, referred to as a “mexB (PA) strain”) was used. LVFX, TC, or AZT was used as the antibacterial agent used in combination.
The mexB (PA) strain is a strain produced by deleting the genes of MexCD-OprJ, MexEF-OprN, and MexXY in the drug efflux pump of Pseudomonas aeruginosa described in FEMS Microbiology Letters, 2001, Vol. 202, pp. 139 to 143. In the mexB (PA) strain, an expression level of MexB as a drug efflux pump is accelerated.
TC is a tetracycline-based antibacterial agent and is a drug that is discharged outside the bacteria by MexB. AZT is a monobactam-based antibacterial agent and is a drug that is discharged outside the bacteria by MexB.
(§2) AMK and GM are aminoglycoside-based antibacterial agents, and are drugs that are not discharged outside the bacteria by MexB but are discharged outside the bacteria by MexY For the culture of each Pseudomonas aeruginosa strain, a 96-well plate (amount of culture medium per well: 100 μL) was used, and cation-adjusted Mueller Hinton broth (CAMHB) was used. The inoculation amount of the bacteria was set to 10^4 to 5 CFU/well.
(§3) The mexB (PA) strain and the S-3769 strain were cultured for 16 to 20 hours in a culture medium to which each antibacterial agent and test compounds at various concentrations (0 to 800 μM) were added, and the proliferation of the bacterial strains was evaluated by optical turbidity at 595 nm (OD595). The concentration of the antibacterial agent in the culture medium was set to ¼ MIC.
(§4) The proliferation of bacteria in a case where the test compound and the antibacterial agent were not added was measured, and compared with the proliferation of bacteria in a case where the test compound in a case where the antibacterial agent was added at the concentration of ¼ MIC was contained, and the lowest concentration of the test compound at which the proliferation was inhibited by 99% or more was defined as the drug efflux pump inhibitory ability of the test compound as 99% inhibitory effect concentration (EC99).
(§5) The effect of suppressing the proliferation of each test compound in combination with an antibacterial agent at ¼ MIC for mexB (PA) or the S-3769 strain was evaluated as follows according to the value of EC99. • S: EC99≤12.5 μM • A: 12.5 μM<EC99≤25 μM • B: 25 μM<EC99≤100 μM • C: 100 μM<EC99
(§6) The combinational effect of the test compound with the antibacterial agent against Pseudomonas aeruginosa was evaluated in the same manner as in Test Example 2.

S-3769 strain = assay: Combinational effect with antibacterial agent against Pseudomonas aeruginosa (Test Examples 2 and 4): S-3769 strain with AMK or GM at 1/4 MIC, EC99; format: cell-based; conditions: for EC99, S-3769 strain, AMK / EC99, S-3769 strain, GM: Table 52, Test Example 2, 16 to 20 hours culture, OD595; for EC99, S-3769 strain, AMK / EC99, combinational effect with AMK, S-3769 strain: combined with AMK at 1/4 MIC; for EC99, S-3769 strain, GM / EC99, combinational effect with GM, S-3769 strain: combined with GM at 1/4 MIC; for EC99, combinational effect with AMK, S-3769 strain / EC99, combinational effect with GM, S-3769 strain: Test Example 4
Experimental: as §1
The […] was used for evaluating the inhibitory ability against MexXY-OprM. AMK or GM was used as the antibacterial agent used in combination.
The S-3769 strain is a clinically isolated strain collected from a domestic medical institution, and is a strain in which the expression level of MexY is accelerated.
as §2, §3, §4, §5, §6

| Structure (SMILES) | EC99, mexB (PA), AZT (mexB (PA) strain) | EC99, mexB (PA), LVFX (mexB (PA) strain) | EC99, mexB (PA), TC (mexB (PA) strain) | EC99, S-3769 strain, AMK (S-3769 strain) | EC99, S-3769 strain, GM (S-3769 strain) | EC99, combinational effect with AZT, mexB (PA) (mexB (PA) strain) | EC99, combinational effect with LVFX, mexB (PA) (mexB (PA) strain) | EC99, combinational effect with TC, mexB (PA) (mexB (PA) strain) | EC99, combinational effect with AMK, S-3769 strain (S-3769 strain) | EC99, combinational effect with GM, S-3769 strain (S-3769 strain) |
| --- | --- | --- | --- | --- | --- | --- | --- | --- | --- | --- |
| CCOc1cccc(F)c1CN1CCN(C(=O)[C@H](N)C2CCN(CCc3cc(C(F)(F)F)ccc3-c3ccccc3)CC2)CC1 [Example 83, Hydrobromide of (R)-2-amino-1-(4-(2-ethoxy-6-fluorobenzyl)piperazin-1-yl)-2-(1-(2-(4-(trifuluoromethyl)-[1,1′-biphenyl]-2-yl)ethyl)piperidin-4-yl) ethan-1-one] | B (25 μM<EC99≤100 μM) | B (25 μM<EC99≤100 μM) | B (25 μM<EC99≤100 μM) | B (25 μM<EC99≤100 μM) | B (25 μM<EC99≤100 μM) |  |  |  |  |  |
| CCOc1cccc(F)c1CN1CCN(C(=O)[C@H](N)C2CCN(CCC3CCCCO3)CC2)CC1 (stereo partly shown) [Example 123] | C (100 μM<EC99) | C (100 μM<EC99) | C (100 μM<EC99) | C (100 μM<EC99) | C (100 μM<EC99) |  |  |  |  |  |
| CCOc1cccc(F)c1CN1CCN(C(=O)[C@H](N)C2CCN(CCc3cc(Cl)ccc3-c3cc(Cl)ccc3O)CC2)CC1 [Example 580, Hydrochloride of (R)-2-amino-2-(1-(2-(4,5′-dichloro-2′-hydroxy-[1,1-biphenyl]-2-yl)ethyl)piperidin-4-yl)-1-(4-(2-ethoxy-6-fluorobenzyl)piperazin-1-yl)ethan-1-one] |  |  |  |  |  | A (12.5 μM<EC99≤25 μM) | S (EC99≤12.5 μM) | A (12.5 μM<EC99≤25 μM) | S (EC99≤12.5 μM) | A (12.5 μM<EC99≤25 μM) |
| Nc1nc2c(CN3CCN(C(=O)[C@H](N)C4CCN(CCc5cc(Cl)ccc5-c5ccccc5)CC4)CC3)cccc2s1 [Example 519, Hydrobromide of (R)-2-amino-1-(4-((2-aminobenzo[d]thiazol-4-yl)methyl)piperazin-1-yl)-2-(1-(2-(4-chloro-[1,1-biphenyl]-2-yl)ethyl)piperidin-4-yl)ethan-1-one] |  |  |  |  |  | C (100 μM<EC99) | C (100 μM<EC99) | B (25 μM<EC99≤100 μM) | B (25 μM<EC99≤100 μM) | B (25 μM<EC99≤100 μM) |
| CNc1cccc(-c2ccc(Cl)cc2CCN2CCC([C@@H](N)C(=O)N3CCN(Cc4ccccc4SC)CC3)CC2)c1 [Example 565, Hydrobromide of (R)-2-amino-2-(1-(2-(4-chloro-3′-(methylamino)-[1,1-biphenyl]-2-yl)ethyl)piperidin-4-yl)-1-(4-(2-(methylthio)benzyl)piperazin-1-yl)ethan-1-one] |  |  |  |  |  | A (12.5 μM<EC99≤25 μM) | S (EC99≤12.5 μM) | S (EC99≤12.5 μM) | B (25 μM<EC99≤100 μM) | B (25 μM<EC99≤100 μM) |
| COc1cccc(SC)c1CN1CCN(C(=O)[C@H](N)C2CCN(CCc3cc(Cl)ccc3-c3ccccc3)CC2)CC1 [Example 522, Hydrobromide of (R)-2-amino-2-(1-(2-(4-chloro-[1,1-biphenyl]-2-yl)ethyl)piperidin-4-yl)-1-(4-(2-methoxy-6-(methylthio)benzyl)piperazin-1-yl)ethan-1-one] |  |  |  |  |  | B (25 μM<EC99≤100 μM) | A (12.5 μM<EC99≤25 μM) | B (25 μM<EC99≤100 μM) | A (12.5 μM<EC99≤25 μM) | B (25 μM<EC99≤100 μM) |
| CCOc1cccc(F)c1CN1CCN(C(=O)[C@H](N)C2CCN(CCc3cc(Cl)ccc3-c3ccccc3N)CC2)CC1 [Example 97, (R)-2-amino-2-(1-(2-(2′-amino-4-chloro-[1,1′-biphenyl]-2-yl)ethyl)piperidin-4-yl)-1-(4-(2-ethoxy-6-fluorobenzyl)piperazin-1-yl)ethan-1-one] | S (EC99≤12.5 μM) | S (EC99≤12.5 μM) | A (12.5 μM<EC99≤25 μM) | A (12.5 μM<EC99≤25 μM) | S (EC99≤12.5 μM) |  |  |  |  |  |
| COc1c(CN2CCN(C(=O)[C@H](N)C3CCN(CCc4cc(Cl)ccc4-c4ccccc4)CC3)CC2)cccc1B(O)O [Example 537, Hydrobromide of (R)-(3-((4-(2-amino-2-(1-(2-(4-chloro-[1,1-biphenyl]-2-yl)ethyl)piperidin-4-yl)acetyl)piperazin-1-yl)methyl)-2-methoxyphenyl)boronic acid] |  |  |  |  |  | C (100 μM<EC99) | C (100 μM<EC99) | B (25 μM<EC99≤100 μM) | B (25 μM<EC99≤100 μM) | A (12.5 μM<EC99≤25 μM) |
| CCOc1cccc(F)c1CN1CCN(C(=O)[C@H](N)C2CCN(CCc3cscc3-c3ccccc3)CC2)CC1 [Example 540, Hydrobromide of (R)-2-amino-1-(4-(2-ethoxy-6-fluorobenzyl)piperazin-1-yl)-2-(1-(2-(4-phenylthiophen-3-yl)ethyl)piperidin-4-yl)ethan-1-one] |  |  |  |  |  | C (100 μM<EC99) | B (25 μM<EC99≤100 μM) | B (25 μM<EC99≤100 μM) | A (12.5 μM<EC99≤25 μM) | A (12.5 μM<EC99≤25 μM) |
| CCOc1cccc(F)c1CN1CCN(C(=O)[C@H](N)C2CCN(CCc3cc(Cl)ccc3-c3ccc(F)cc3Cl)CC2)CC1 [Example 90, Hydrobromide of (R)-2-amino-2-(1-(2-(2′,4-dichloro-4′-fluoro-[1,1′-biphenyl]-2-yl)ethyl)piperidin-4-yl)-1-(4-(2-ethoxy-6-fluorobenzyl)piperazin-1-yl) ethan-1-one] | B (25 μM<EC99≤100 μM) | B (25 μM<EC99≤100 μM) | A (12.5 μM<EC99≤25 μM) | A (12.5 μM<EC99≤25 μM) | B (25 μM<EC99≤100 μM) |  |  |  |  |  |
| CCOc1ncccc1CN1CCN(C(=O)[C@H](N)C2CCN(CCc3cc(Cl)ccc3-c3ccccc3)CC2)CC1 [Example 511, Hydrobromide of (R)-2-amino-2-(1-(2-(4-chloro-[1,1-biphenyl]-2-yl)ethyl)piperidin-4-yl)-1-(4-((2-ethoxypyridin-3-yl)methyl)piperazin-1-yl)ethan-1-one] |  |  |  |  |  | B (25 μM<EC99≤100 μM) | C (100 μM<EC99) | B (25 μM<EC99≤100 μM) | B (25 μM<EC99≤100 μM) | A (12.5 μM<EC99≤25 μM) |
